Test results published in the NIST ThermoML archive (doi:10.1016/j.jct.2016.06.017).
± gives the expanded uncertainty stated by the source.

How the values were obtained:
[1] = xn = mol fraction of the nth substance listed; settings: 100 kPa, Liquid, Frequency=0.01 MHz, Alternating current cell with electrodes
[2] = 100 kPa, Liquid, Frequency=0.01 MHz, Alternating current cell with electrodes

O=C1CCCO1 [γ-butyrolactone] + CCCCn1cc[n+](C)c1.N#CN=C=[N-]
electrical conductivity ([1]; 273.15 K, x2 = 0.0504): 1.05 ± 0.015 S/m
electrical conductivity ([1]; 273.15 K, x2 = 0.1002): 1.4 ± 0.015 S/m
electrical conductivity ([1]; 273.15 K, x2 = 0.2002): 1.518 ± 0.015 S/m
electrical conductivity ([1]; 273.15 K, x2 = 0.2984): 1.35 ± 0.014 S/m
electrical conductivity ([1]; 273.15 K, x2 = 0.4005): 1.13 ± 0.012 S/m
electrical conductivity ([1]; 273.15 K, x2 = 0.4954): 0.924 ± 0.01 S/m
electrical conductivity ([1]; 273.15 K, x2 = 0.6957): 0.639 ± 0.007 S/m
electrical conductivity ([1]; 273.15 K, x2 = 0.8871): 0.454 ± 0.005 S/m
electrical conductivity ([1]; 283.15 K, x2 = 0.0504): 1.27 ± 0.018 S/m
electrical conductivity ([1]; 283.15 K, x2 = 0.1002): 1.71 ± 0.018 S/m
electrical conductivity ([1]; 283.15 K, x2 = 0.2002): 1.918 ± 0.019 S/m
electrical conductivity ([1]; 283.15 K, x2 = 0.2984): 1.77 ± 0.018 S/m
electrical conductivity ([1]; 283.15 K, x2 = 0.4005): 1.54 ± 0.016 S/m
electrical conductivity ([1]; 283.15 K, x2 = 0.4954): 1.32 ± 0.014 S/m
electrical conductivity ([1]; 283.15 K, x2 = 0.6957): 0.968 ± 0.01 S/m
electrical conductivity ([1]; 283.15 K, x2 = 0.8871): 0.736 ± 0.008 S/m
electrical conductivity ([1]; 293.15 K, x2 = 0.0504): 1.5 ± 0.022 S/m
electrical conductivity ([1]; 293.15 K, x2 = 0.1002): 2.03 ± 0.022 S/m
electrical conductivity ([1]; 293.15 K, x2 = 0.2002): 2.35 ± 0.024 S/m
electrical conductivity ([1]; 293.15 K, x2 = 0.2984): 2.24 ± 0.023 S/m
electrical conductivity ([1]; 293.15 K, x2 = 0.4005): 2.012 ± 0.02 S/m
electrical conductivity ([1]; 293.15 K, x2 = 0.4954): 1.78 ± 0.018 S/m
electrical conductivity ([1]; 293.15 K, x2 = 0.6957): 1.37 ± 0.014 S/m
electrical conductivity ([1]; 293.15 K, x2 = 0.8871): 1.09 ± 0.011 S/m
electrical conductivity ([1]; 298.15 K, x2 = 0.0504): 1.62 ± 0.024 S/m
electrical conductivity ([1]; 298.15 K, x2 = 0.1002): 2.2 ± 0.024 S/m
electrical conductivity ([1]; 298.15 K, x2 = 0.2002): 2.58 ± 0.026 S/m
electrical conductivity ([1]; 298.15 K, x2 = 0.2984): 2.49 ± 0.025 S/m
electrical conductivity ([1]; 298.15 K, x2 = 0.4005): 2.27 ± 0.023 S/m
electrical conductivity ([1]; 298.15 K, x2 = 0.4954): 2.03 ± 0.021 S/m
electrical conductivity ([1]; 298.15 K, x2 = 0.6957): 1.606 ± 0.016 S/m
electrical conductivity ([1]; 298.15 K, x2 = 0.8871): 1.3 ± 0.013 S/m
electrical conductivity ([1]; 303.15 K, x2 = 0.0504): 1.74 ± 0.026 S/m
electrical conductivity ([1]; 303.15 K, x2 = 0.1002): 2.38 ± 0.026 S/m
electrical conductivity ([1]; 303.15 K, x2 = 0.2002): 2.814 ± 0.028 S/m
electrical conductivity ([1]; 303.15 K, x2 = 0.2984): 2.75 ± 0.028 S/m
electrical conductivity ([1]; 303.15 K, x2 = 0.4005): 2.53 ± 0.026 S/m
electrical conductivity ([1]; 303.15 K, x2 = 0.4954): 2.29 ± 0.023 S/m
electrical conductivity ([1]; 303.15 K, x2 = 0.6957): 1.85 ± 0.019 S/m
electrical conductivity ([1]; 303.15 K, x2 = 0.8871): 1.53 ± 0.016 S/m
electrical conductivity ([1]; 313.15 K, x2 = 0.0504): 1.98 ± 0.03 S/m
electrical conductivity ([1]; 313.15 K, x2 = 0.1002): 2.73 ± 0.03 S/m
electrical conductivity ([1]; 313.15 K, x2 = 0.2002): 3.301 ± 0.033 S/m
electrical conductivity ([1]; 313.15 K, x2 = 0.2984): 3.29 ± 0.033 S/m
electrical conductivity ([1]; 313.15 K, x2 = 0.4005): 3.101 ± 0.031 S/m
electrical conductivity ([1]; 313.15 K, x2 = 0.4954): 2.87 ± 0.029 S/m
electrical conductivity ([1]; 313.15 K, x2 = 0.6957): 2.401 ± 0.024 S/m
electrical conductivity ([1]; 313.15 K, x2 = 0.8871): 2.04 ± 0.021 S/m
electrical conductivity ([1]; 323.15 K, x2 = 0.0504): 2.23 ± 0.034 S/m
electrical conductivity ([1]; 323.15 K, x2 = 0.1002): 3.09 ± 0.034 S/m
electrical conductivity ([1]; 323.15 K, x2 = 0.2002): 3.81 ± 0.039 S/m
electrical conductivity ([1]; 323.15 K, x2 = 0.2984): 3.87 ± 0.039 S/m
electrical conductivity ([1]; 323.15 K, x2 = 0.4005): 3.707 ± 0.037 S/m
electrical conductivity ([1]; 323.15 K, x2 = 0.4954): 3.48 ± 0.035 S/m
electrical conductivity ([1]; 323.15 K, x2 = 0.6957): 3.009 ± 0.03 S/m
electrical conductivity ([1]; 323.15 K, x2 = 0.8871): 2.625 ± 0.026 S/m

CCCCn1cc[n+](C)c1.N#CN=C=[N-] [1-butyl-3-methylimidazolium dicyanamide]
electrical conductivity ([2]; 273.15 K): 0.383 ± 0.004 S/m
electrical conductivity ([2]; 283.15 K): 0.636 ± 0.006 S/m
electrical conductivity ([2]; 293.15 K): 0.972 ± 0.01 S/m
electrical conductivity ([2]; 298.15 K): 1.17 ± 0.012 S/m
electrical conductivity ([2]; 303.15 K): 1.39 ± 0.014 S/m
electrical conductivity ([2]; 313.15 K): 1.89 ± 0.019 S/m
electrical conductivity ([2]; 323.15 K): 2.46 ± 0.025 S/m

CCCCn1cc[n+](C)c1.N#CN=C=[N-] [1-butyl-3-methylimidazolium dicyanamide] + O=C1CCCO1
electrical conductivity ([1]; 273.15 K, x1 = 1): 0.383 ± 0.004 S/m
electrical conductivity ([1]; 283.15 K, x1 = 1): 0.636 ± 0.006 S/m
electrical conductivity ([1]; 293.15 K, x1 = 1): 0.972 ± 0.01 S/m
electrical conductivity ([1]; 298.15 K, x1 = 1): 1.17 ± 0.012 S/m
electrical conductivity ([1]; 303.15 K, x1 = 1): 1.39 ± 0.014 S/m
electrical conductivity ([1]; 313.15 K, x1 = 1): 1.89 ± 0.019 S/m
electrical conductivity ([1]; 323.15 K, x1 = 1): 2.46 ± 0.025 S/m
